# Reference: US11254667B2 (priority 2016, dated 2022)
# Where two headings read alike, the source gives them in different places.
# Tests used:
# MA9-NRas cells = assay: NRAS IC50 (MA9-NRas cells); type: cell-based
# physchem = conditions: pH 7.4, aqueous buffer, kinetic from dmso stock
# in vivo = conditions: NRG/NRGS, mouse, ip, 30 mg/kg
# [1] = Homo sapiens, read-out: NRAS IC50
# [2] = Homo sapiens; read-out: NRAS IC50
SMILES,Stability (rat),IC50 (MA9-NRas cells; [1]),solubility (physchem),other results
"COc1cc2ncc(-c3cccc(NC4CCNC4)n3)n2cc1-c1ccncc1 (stereo not drawn) [Compound I-23, 6-(7-methoxy-6-(pyridin-4-yl)imidazo[1,2-a]pyridin-3-yl)-N-(pyrrolidin-3-yl)pyridin-2-amine]",>30.0 min,1.83 µM,11.6 µg/mL,–
c1cc(N[C@H]2CCNC2)nc(-c2cnc3ccc(-c4cn[nH]c4)cn23)c1 [Compound I-44],–,–,42.6 µg/mL,Stability: 6.7 min
Clc1cc2ncc(-c3cccc(NC4CNC4)n3)n2cc1Cl [Compound I-62],>30.0 min,–,41.5 µg/mL,–
Cc1ccc(NC2CNC2)nc1-c1cnc2ccc(Cl)cn12 [Compound I-49],26.2 min,–,> 46 µg/mL,–
Cn1cc(-c2ccc3ncc(-c4cccc(NC5CNC5)n4)n3c2)cn1 [Compound I-46],>30.0 min,16.6 µM,43.1 µg/mL,–
c1cc(NC2CNC2)nc(-c2cnc3ccc(-c4cn[nH]c4)cn23)c1 [Compound I-45],–,4.29 µM,> 49 µg/mL,–
"COc1cc2ncc(-c3cccc(NC4CCNC4)n3)n2cc1-c1c(C)n[nH]c1C (stereo not drawn) [Compound I-25, 6-(6-(3,5-dimethyl-1H-pyrazol-4-yl)-7-methoxyimidazo[1,2-a]pyridin-3-yl)-N-(pyrrolidin-3-yl)pyridin-2-amine]",>30.0 min,–,> 60 µg/mL,IC50 (MA9-NRas cells; [2]): 15.7 µM
Brc1ccc2ncc(-c3cccc(NC4CNC4)n3)n2c1 [Compound I-52],19.8 min,–,41.8 µg/mL,–
"COc1cc2ncc(-c3cccc(NC4CCCNC4)n3)n2cc1-c1cn[nH]c1 (stereo not drawn) [Compound I-29, 6-(7-methoxy-6-(1H-pyrazol-4-yl)imidazo[1,2-a]pyridin-3-yl)-N-(piperidin-3-yl)pyridin-2-amine]",9.8 min,9.35 µM,35.6 µg/mL,–
COc1cc2ncc(-c3cccc(NC4CCNC4)n3)n2cc1C#N (stereo not drawn) [Compound I-39],8.8 min,5.58 µM,10.6 µg/mL,–
"COc1ccn2c(-c3cccc(NC4CNC4)n3)cnc2c1 [Compound I-50, N-(azetidin-3-yl)-6-(7-methoxyimidazo[1,2-a]pyridin-3-yl)pyridin-2-amine]",>30.0 min,–,> 44 µg/mL,–
"N#Cc1ccc2ncc(-c3cccc(NC4CNC4)n3)n2c1 [Compound I-60, 3-(6-(azetidin-3-ylamino)pyridin-2-yl)imidazo[1,2-a]pyridine-6-carbonitrile]",16.4 min,–,> 43 µg/mL,–
COc1cc(-c2cn[nH]c2)cn2c(-c3cccc(NC4CCNC4)n3)cnc12 (stereo not drawn) [Compound I-37],2.3 min,16.6 µM,> 55 µg/mL,–
"Cc1ccn2c(-c3cccc(NC4CNC4)n3)cnc2c1 [Compound I-61, N-(azetidin-3-yl)-6-(7-methylimidazo[1,2-a]pyridin-3-yl)pyridin-2-amine]",>30.0 min,–,> 41 µg/mL,–
Clc1cn2c(-c3cccc(NC4CCNC4)n3)cnc2cc1OCCN1CCOCC1 (stereo not drawn) [Compound I-40],>30.0 min,0.626 µM,> 65 µg/mL,–
CCN1CCN(c2ccc3ncc(-c4cccc(NC5CNC5)n4)n3c2)CC1 [Compound I-64],–,–,> 56 µg/mL,–
"Clc1ccn2c(-c3cccc(NC4CNC4)n3)cnc2c1 [Compound I-63, N-(azetidin-3-yl)-6-(7-chloroimidazo[1,2-a]pyridin-3-yl)pyridin-2-amine]",–,–,> 44 µg/mL,–
CC(=O)N1CC(Nc2cccc(-c3cnc4ccc(Cl)cn34)n2)C1 [Compound I-57],>30.0 min,–,> 50 µg/mL,–
COc1cc2ncc(-c3cccc(NC4CCNC4)n3)n2cc1-c1nnn[nH]1 (stereo not drawn) [Compound I-38],>30.0 min,0.002 µM,> 56 µg/mL,–
Cc1ccc(-c2cnc3ccc(Cl)cn23)nc1NC1CNC1 [Compound I-48],11.8 min,–,> 46 µg/mL,–
"C#Cc1cn2c(-c3cccc(NC4CCNC4)n3)cnc2cc1OC (stereo not drawn) [Compound I-68, 6-(6-ethynyl-7-methoxyimidazo[1,2-a]pyridin-3-yl)-N-(pyrrolidin-3-yl)pyridin-2-amine]",11.6 min,–,> 49 µg/mL,–
"COc1cc2ncc(-c3cccc(NC4CCNC4)n3)n2cc1Cl (stereo not drawn) [Compound I-21, 6-(6-chloro-7-methoxyimidazo[1,2-a]pyridin-3-yl)-N-(pyrrolidin-3-yl)pyridin-2-amine]",27 min,–,7.7 µg/mL,–

SMILES,Stability (rat),IC50 (MA9-NRas cells; [1]),solubility (physchem),other results
COc1cc2ncc(-c3cccc(NC4CCNC4)n3)n2cc1-c1cnn(CCN2CCOCC2)c1 (stereo not drawn) [Compound I-26],>30.0 min,15.7 µM,> 72 µg/mL,–
"COc1cc2ncc(-c3cccc(NC4CCNC4)n3)n2cc1-c1c(C)noc1C (stereo not drawn) [Compound I-28, 6-(6-(3,5-dimethylisoxazol-4-yl)-7-methoxyimidazo[1,2-a]pyridin-3-yl)-N-(pyrrolidin-3-yl)pyridin-2-amine]",15.7 min,–,> 60 µg/mL,IC50 (MA9-NRas cells; [2]): 14.8 µM
"c1cc(NC2CCNC2)nc(-c2cnc3cc(OCCN4CCOCC4)c(-c4cn[nH]c4)cn23)c1 (stereo not drawn) [Compound I-41, 6-(7-(2-morpholinoethoxy)-6-(1H-pyrazol-4-yl)imidazo[1,2-a]pyridin-3-yl)-N-(pyrrolidin-3-yl)pyridin-2-amine]",>30.0 min,17.6 µM,> 70 µg/mL,–
"COc1cc2ncc(-c3cccc(N(C)C4CCNC4)n3)n2cc1-c1cn[nH]c1 (stereo not drawn) [Compound I-31, 6-(7-methoxy-6-(1H-pyrazol-4-yl)imidazo[1,2-a]pyridin-3-yl)-N-methyl-N-(pyrrolidin-3-yl)pyridin-2-amine]",11.5 min,–,14.1 µg/mL,IC50 (MA9-NRas cells; [2]): 16.6 µM
COc1cc2ncc(-c3cccc(NC4CCNC4)n3)n2cc1OC (stereo not drawn) [Compound I-36],>30.0 min,4.43 µM,> 50 µg/mL,–
"COc1cc2ncc(-c3cccc(OC4CCNC4)n3)n2cc1-c1cn[nH]c1 (stereo not drawn) [Compound I-32, 7-methoxy-6-(1H-pyrazol-4-yl)-3-(6-(pyrrolidin-3-yloxy)pyridin-2-yl)imidazo[1,2-a]pyri-dine]",7.7 min,3.72 µM,8.2 µg/mL,–
CN(c1cccc(-c2cnc3ccc(Cl)cn23)n1)C1CCNCC1 [Compound I-51],–,–,> 50 µg/mL,Stability: 9.0 min
"COc1cc(NC2CNC2)nc(-c2cnc3ccc(Cl)cn23)c1 [Compound I-67, N-(azetidin-3-yl)-6-(6-chloroimidazo[1,2-a]pyridin-3-yl)-4-methoxypyridin-2-amine]",>30.0 min,–,> 49 µg/mL,–
"c1cc(NC2CNC2)nc(-c2cnc3ccccn23)c1 [Compound I-12, N-(azetidin-3-yl)-6-(imidazo[1,2-a]pyridin-3-yl)pyridin-2-amine]",>30.0 min,–,> 39 µg/mL,–
"COc1cc2ncc(-c3nc(NC4CCNC4)c(F)cc3F)n2cc1-c1cn[nH]c1 (stereo not drawn) [Compound I-33, 3,5-difluoro-6-(7-methoxy-6-(1H-pyrazol-4-yl)imidazo[1,2-a]pyridin-3-yl)-N-(pyrrolidin-3-yl)pyridin-2-amine]",9.3 min,29.8 µM,3.9 µg/mL,–
Fc1cc(F)c(-c2cnc3ccc(Cl)cn23)nc1NC1CNC1 [Compound I-47],>30.0 min,1.88 µM,> 50 µg/mL,–
O=C(c1ccccc1)N1CC(Nc2cccc(-c3cnc4ccc(Cl)cn34)n2)C1 [Compound I-58],8.0 min,–,< 1 µg/mL,–
"COc1cc2ncc(-c3cccc(NC4CCNC4)n3)n2cc1-c1cc[nH]c1 (stereo not drawn) [Compound I-27, 6-(7-methoxy-6-(1H-pyrrol-3-yl)imidazo[1,2-a]pyridin-3-yl)-N-(pyrrolidin-3-yl)pyridin-2-amine]",>30.0 min,4.43 µM,34.3 µg/mL,–
Clc1ccc2ncc(-c3cc(Br)cc(NC4CNC4)n3)n2c1 [Compound I-53],>30.0 min,–,19.5 µg/mL,–
"Clc1ccc2ncc(-c3cccc(NC4CCNC4)n3)n2c1 (stereo not drawn) [Compound I-16, 6-(6-chloroimidazo[1,2-a]pyridin-3-yl)-N-(pyrrolidin-3-yl)pyridin-2-amine]",25.6 min,1.76 µM,> 46 µg/mL,–
"Cc1cc(NC2CNC2)nc(-c2cnc3ccc(Cl)cn23)c1 [Compound I-55, N-(azetidin-3-yl)-6-(6-chloroimidazo[1,2-a]pyridin-3-yl)-4-methylpyridin-2-amine]",–,–,> 46 µg/mL,–
N#CCC(=O)N1CC(Nc2cccc(-c3cnc4ccc(Cl)cn34)n2)C1 [Compound I-59],>30.0 min,–,18.3 µg/mL,–
"COc1cc(Cl)cn2c(-c3cccc(NC4CNC4)n3)cnc12 [Compound I-42, N-(azetidin-3-yl)-6-(6-chloro-8-methoxyimidazo[1,2-a]pyridin-3-yl)pyridin-2-amine]",–,20.9 µM,> 49 µg/mL,Stability: >30 min
"c1cc(NC2CCNC2)nc(-c2cnc3ccc(-c4cn[nH]c4)cn23)c1 (stereo not drawn) [Compound I-54, 6-(6-(1H-pyrazol-4-yl)imidazo[1,2-a]pyridin-3-yl)-N-(pyrrolidin-3-yl)pyridin-2-amine]",–,–,> 51 µg/mL,Stability: 7.6 min
COc1cc2ncc(-c3cccc(NC4CCNCC4)n3)n2cc1-c1cn[nH]c1 [Compound I-30],24.7 min,–,12.3 µg/mL,–
"COc1cc2ncc(-c3cccc(NC4CCNC4)n3)n2cc1-c1cccnc1 (stereo not drawn) [Compound I-22, 6-(7-methoxy-6-(pyridin-3-yl)imidazo[1,2-a]pyridin-3-yl)-N-(pyrrolidin-3-yl)pyridin-2-amine]",–,–,29 µg/mL,AUC(0-inf) (in vivo): 4850 ng·h/mL; Cmax (in vivo): 1540 ng/mL; Tmax (in vivo): 30 min; solubility kinetic (physchem): 29 µM
